Data taken from PubChem BioAssay (NCI).
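Grown in 96-well plates, cells were treated for 48 hours with each compound at five concentrations. Insufficient inhibition: endpoint recorded as highest concentration tested. TGI is the concentration that stops growth completely.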

Tests used:
Experiment in all cases: NCI-60 cell line screen, 48 h
MALME-3M melanoma = tested on: MALME-3M melanoma
HCC-2998 colon = tested on: HCC-2998 colon
EKVX NSCLC = tested on: EKVX NSCLC
RXF 393 renal = tested on: RXF 393 renal
SK-MEL-5 melanoma = tested on: SK-MEL-5 melanoma
M14 melanoma = tested on: M14 melanoma
MDA-N = tested on: MDA-N
SF-268 CNS = tested on: SF-268 CNS
HCT-15 colon = tested on: HCT-15 colon
MDA-MB-231 breast = tested on: MDA-MB-231 breast
UO-31 renal = tested on: UO-31 renal
RPMI-8226 leukemia = tested on: RPMI-8226 leukemia
OVCAR-5 ovarian = tested on: OVCAR-5 ovarian
U251 CNS = tested on: U251 CNS
MCF7 breast = tested on: MCF7 breast
T-47D breast = tested on: T-47D breast
TK-10 renal = tested on: TK-10 renal
MDA-MB-435 = tested on: MDA-MB-435
HOP-62 NSCLC = tested on: HOP-62 NSCLC
SK-OV-3 ovarian = tested on: SK-OV-3 ovarian
NCI-H460 lung = tested on: NCI-H460 lung
NCI-H226 lung = tested on: NCI-H226 lung
COLO 205 colon = tested on: COLO 205 colon
CAKI-1 renal = tested on: CAKI-1 renal
MOLT-4 leukemia = tested on: MOLT-4 leukemia
A498 renal = tested on: A498 renal
HL-60(TB) leukemia = tested on: HL-60(TB) leukemia
DU-145 prostate = tested on: DU-145 prostate
PC-3 prostate = tested on: PC-3 prostate
IGROV1 ovarian = tested on: IGROV1 ovarian
UACC-257 melanoma = tested on: UACC-257 melanoma
SN12C renal = tested on: SN12C renal
HT29 colon = tested on: HT29 colon
786-0 renal = tested on: 786-0 renal
UACC-62 melanoma = tested on: UACC-62 melanoma
LOX IMVI melanoma = tested on: LOX IMVI melanoma
SK-MEL-28 melanoma = tested on: SK-MEL-28 melanoma
BT-549 breast = tested on: BT-549 breast
OVCAR-8 ovarian = tested on: OVCAR-8 ovarian
SW-620 colon = tested on: SW-620 colon
OVCAR-3 ovarian = tested on: OVCAR-3 ovarian
HOP-92 NSCLC = tested on: HOP-92 NSCLC
HCT-116 colon = tested on: HCT-116 colon
KM12 colon = tested on: KM12 colon
SNB-75 CNS = tested on: SNB-75 CNS
SNB-19 CNS = tested on: SNB-19 CNS
SF-539 CNS = tested on: SF-539 CNS
NCI-H522 lung = tested on: NCI-H522 lung
SK-MEL-2 melanoma = tested on: SK-MEL-2 melanoma
NCI/ADR-RES ovarian = tested on: NCI/ADR-RES ovarian
ACHN renal = tested on: ACHN renal
SR leukemia = tested on: SR leukemia
A549 NSCLC = tested on: A549 NSCLC
HS 578T breast = tested on: HS 578T breast
OVCAR-4 ovarian = tested on: OVCAR-4 ovarian

Measured: TGI

Cc1cc(S(=O)(=O)Nc2n[nH]c(-c3ccc(Cl)cn3)n2)c(S)cc1Cl
99.4 µM: UO-31 renal
92.5 µM: SNB-19 CNS
> 100 µM: MALME-3M melanoma | HCC-2998 colon | EKVX NSCLC | RXF 393 renal | SK-MEL-5 melanoma | M14 melanoma | MDA-N | SF-268 CNS | HCT-15 colon | MDA-MB-231 breast | RPMI-8226 leukemia | OVCAR-5 ovarian | U251 CNS | MCF7 breast | T-47D breast | TK-10 renal | MDA-MB-435 | HOP-62 NSCLC | SK-OV-3 ovarian | NCI-H460 lung | NCI-H226 lung | COLO 205 colon | CAKI-1 renal | MOLT-4 leukemia | A498 renal | HL-60(TB) leukemia | DU-145 prostate | PC-3 prostate | IGROV1 ovarian | UACC-257 melanoma | SN12C renal | HT29 colon | 786-0 renal | UACC-62 melanoma | LOX IMVI melanoma | SK-MEL-28 melanoma | BT-549 breast | OVCAR-8 ovarian | SW-620 colon | OVCAR-3 ovarian | HOP-92 NSCLC | HCT-116 colon | KM12 colon | SNB-75 CNS | SF-539 CNS | NCI-H522 lung | SK-MEL-2 melanoma | NCI/ADR-RES ovarian | ACHN renal | SR leukemia | A549 NSCLC | OVCAR-4 ovarian
87.2 µM: HS 578T breast
